The values that follow come from patent US4322308A, “Detergent product containing deodorant compositions” (priority 1977, dated 1982).

Data set [1] deals with T1, lipoxidase (E.C. 13.1.13) (Glycine max, UniProt P08170).
T1 sequence (P08170 1-839): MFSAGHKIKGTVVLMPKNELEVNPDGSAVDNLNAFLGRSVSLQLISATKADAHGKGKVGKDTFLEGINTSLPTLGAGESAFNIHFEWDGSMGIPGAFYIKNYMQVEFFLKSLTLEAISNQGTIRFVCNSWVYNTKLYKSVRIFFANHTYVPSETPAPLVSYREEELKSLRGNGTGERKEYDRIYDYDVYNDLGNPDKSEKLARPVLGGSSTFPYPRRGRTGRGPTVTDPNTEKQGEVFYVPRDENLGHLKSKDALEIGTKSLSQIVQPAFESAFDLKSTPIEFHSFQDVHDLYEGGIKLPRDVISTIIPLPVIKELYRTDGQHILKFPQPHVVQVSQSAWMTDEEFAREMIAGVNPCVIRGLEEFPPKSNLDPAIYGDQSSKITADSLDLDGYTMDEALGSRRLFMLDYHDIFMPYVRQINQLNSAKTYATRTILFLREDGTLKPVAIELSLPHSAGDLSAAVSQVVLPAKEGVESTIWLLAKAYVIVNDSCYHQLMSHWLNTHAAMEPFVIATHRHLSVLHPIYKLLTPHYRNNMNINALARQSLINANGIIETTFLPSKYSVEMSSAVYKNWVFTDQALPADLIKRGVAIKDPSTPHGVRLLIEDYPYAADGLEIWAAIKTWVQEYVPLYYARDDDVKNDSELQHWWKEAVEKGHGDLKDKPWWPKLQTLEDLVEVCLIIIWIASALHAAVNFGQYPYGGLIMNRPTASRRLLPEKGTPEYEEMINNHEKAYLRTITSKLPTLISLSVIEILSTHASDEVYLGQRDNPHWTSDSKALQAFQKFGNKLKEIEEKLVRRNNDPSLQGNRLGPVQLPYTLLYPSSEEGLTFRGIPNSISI
Description: The Lipoxidase Test (inhibition of linoleic acid oxidation). Format: biochemical. To be noted: test substrate made with 0.5% by weight solution of the material in ethanol, borate buffer pH 9.0, OD at 234 nm.

Data set [2] has as its system body malodour (axillae of human subjects). Description: Odour Reduction Value Test (soap bars applied to the axillae of a human panel). Format: in vivo. To be noted: for Odour Reduction Value: 0 to 5 scale, 5 hours after washing. Here is the method:
As has been stated, the ability of toilet soap containing both a deodorant perfume and a deodorant other than a deodorant perfume to reduce body malodour was assessed by an odour reduction value test, somewhat similar to that described by Whitehouse and Carter in Proc. Scientific Section of the Toilet Goods Association, 48, 31 (1967) for the measurement of body odour inhibition by germicides in toilet soap.
The test described in that publication was modified in three ways: firstly a 0 to 5 instead of a 0 to 10 grading scale was employed, secondly grading of odour intensity was performed 5 hours after treatment instead of 24 hours, and thirdly, the concentration of deodorant perfume incorporated in the test detergent product was 1.5% by weight of the product.
In this test, the odour reduction value of a standard soap bar containing a deodorant perfume at a standard concentration is measured by assessing its effectiveness in reducing body malodour when the standard soap bar is used to wash the axillae (armpits) of a panel of human subjects.
Standard soap bars are prepared as follows, all amounts given being by weight.
A soap base there is used a neutral wet sodium soap containing 63% of total fatty matter of which 82% is tallow fatty acid and 18% is coconut oil fatty acid. To a homogeneous mixture of 9000 parts of this soap base and 340 parts of free coconut oil fatty acid at 80° C. are added with mixing, 9.4 parts of a 20% aqueous solution of tetrasodium ethylenediamine tetraacetate, 2.2 parts of a 60% aqueous solution of 1-hydroxyethane-1,1-diphosphonic acid and 7.2 parts of butylated hydroxy toluene (BHT) antioxidant dissolved in a little methylated spirits and the temperature of the mass is raised to 140° C. under superatmospheric pressure. The mass is then sprayed at about 30 mm of mercury, to produce a dried soap composition which is collected and extruded at 30° C. as noodles of about 12% moisture content.
9,770 parts of the soap noodles thus obtained are mixed at ambient temperature with 150 parts of the deodorant perfume to be tested, together with 30 parts of a titanium dioxide opacifier and 50 parts of a colourant suspension. The resulting mixture is milled and stamped into tablets. The deodorant perfume to be tested is therefore present at the standard level of 1.5%.
In other respects, the control bar should only contain those additives conventionally present in personal washing products and for the purpose in the amount conventionally used in the art.
A team of 2 to 4 Caucasian female assessors of age within the range of from 20 to 40 years is selected for olfactory evaluation on the basis that each is able to rank correctly the odour levels of the series of aqueous isovaleric acid solutions listed in Table 2 below, and each is able to detect the reduction in body odour following application to the axillae of human subjects of soap containing 2% germicides, according to the procedure described by Whitehouse and Carter.
A panel of 30 to 50 human subjects for use in the test is assembled from Caucasian male subjects of age within the range of from 20 to 55 years.
For two weeks before the start of a test, the panel subjects are assigned a non-deodorant soap bar for exclusive use of bathing and are denied the use of any type of deodorant or antiperspirant. At the end of this period, the subjects are randomly divided into two groups. The control soap bars are then applied to the left axillae of the first group and the right axillae of the second, and the test soap bars are applied to the right axillae of the first group and the left axillae of the second.
The soap bars are applied by a technician using a standard technique in which a wet flannel is soaped with the soap bar for 15 seconds, the axilla is washed with the soaped flannel for 30 seconds, then wiped with a water rinsed flannel and dried with a clean towel.

Data set [3] can be described thus: The Morpholine Test (depression of partial vapour pressure of morpholine). To be noted: morpholine 0.25 g + perfume material 1 g, 37° C., headspace GC.

For orientation: inhibition means the drop in the measured response relative to a control, in per cent.

As for Dimyrcetol, in data set [1], the “LIC (lipoxidase-inhibiting capacity, % inhibition)” value stood at 14%.

On to `O=C(Nc1ccc(Cl)cc1)Nc1ccc(Cl)c(Cl)c1` [3,3,4'-trichloro-carbanilide, 3,4,4'-trichlorocarbanilide], for which the “Odour Reduction Value” in data set [2] (0.16 wt % germicide in soap bar vs control soap bar without germicide) is recorded as 0.10; in data set [2] (0.25 wt % germicide in soap bar vs control soap bar without germicide), 0.14; in data set [2] (0.5 wt % germicide in soap bar vs control soap bar without germicide), 0.22; in data set [2] (0.75 wt % germicide in soap bar vs control soap bar without germicide), 0.27; in data set [2] (1.0 wt % germicide in soap bar vs control soap bar without germicide), 0.30; in data set [2] (2.0 wt % germicide in soap bar vs control soap bar without germicide) it was 0.37. Further, the “maximum reduction in odour intensity obtainable (odour reduction value)” value in data set [2] (germicide alone in soap bar, irrespective of the amount of germicide) is no more than 0.4.

In the case of i-Nonyl acetate, in data set [1], the “LIC (lipoxidase-inhibiting capacity, % inhibition)” value was 50%.

Consider Tetrahydromuguol, for which the “LIC (lipoxidase-inhibiting capacity, % inhibition)” value in data set [1] worked out at 24%.

With `O=C(Cc1ccccc1)OCCc1ccccc1` [Phenylethyl phenylacetate], the “RVR (Raoult variance ratio)” value in data set [3] is recorded as 1.22. Also, the inhibition at 0.5 % strength in data set [1] (read-out: LIC (lipoxidase-inhibiting capacity, % inhibition)) stood at 0%.

For the compound i-Nonyl formate, the “LIC (lipoxidase-inhibiting capacity, % inhibition)” value in data set [1] was 19%.
